Reference: patent US20090076105A1, “PREVENTIVE OR THERAPEUTIC AGENT FOR CEREBRAL ISCHEMIC INJURY OR CEREBRAL ISCHEMIA REPERFUSION IN STROKE” (SANWA KAGAKU KENKYUSHO CO., LTD., priority 2006, published 2009)

Key:
[1] = as reported in Hatsumei Kyokai Kokai Giho No. 2006-500058; cited from earlier work
[2] = system: mouse models with middle cerebral artery occlusion; assay: Mouse models with middle cerebral artery occlusion (MCAO, 2 h) and reperfusion: neurological symptoms, cerebral infarction size and volume; type: in vivo; conditions: for Distribution of neurological scores: score 0 (number of mice) / Distribution of neurological scores: score 1 (number of mice) / Distribution of neurological scores: score 2 (number of mice) / Distribution of neurological scores: score 3 (number of mice) / Neurological scores Mean ± SEM: scored 22 hours after reperfusion, n = 9; for Neurological scores Mean ± SEM: score 0-3
From the text: Mouse models with acute ischemic stroke, namely, mouse models with middle cerebral artery occlusion were used as evaluation systems. The experiment consists of three experiments, i.e., Experiment 1 to evaluate the therapeutic efficacy of fidarestat (control group and fidarestat administration group), Experiment 2 to evaluate the protective effect of fidarestat (control group and fidarestat administration group), and Experiment 3 to evaluate the role of AR (wild-type mouse group and AR gene-deficient mouse group).
Used mice (C57BL/6J line, 22 to 28 g of body weight) were subjected to right middle cerebral artery occlusion (MCAO) by the filament method under gas anesthesia over 2 hours. Thereafter, anesthesia was terminated and the mice were kept in an intensive care system (ThermoCare, Inc) at 32° C. for 4 to 6 hours. The neurological symptoms, the cerebral infarction size, and the cerebral infarction volume were used as endpoints.
The evaluation of the neurological symptoms was determined 22 hours after reperfusion based on the following four scores:
0: no neurological deficit (normal); 1: stretching of the opposite forefoot (mild); 2: contra lateral circling (moderate); and 3: loss of walking and righting reflex (severe).
Evaluations of the cerebral infarction size and the cerebral infarction volume were performed as follows. After the evaluation of the neurological symptoms, the mouse brains were removed immediately and cut into 6 coronary slices with a thickness of 2 mm. In order to discover the sites of infarction, the slices were stained with 2% triphenyltetrazolium chloride (TTC) in a darkroom for 15 minutes and then fixed in 10% formalin buffer overnight. The posterior surface of each brain slice was photographed and analyzed using a digital image analyzing system (NeuroLucida, MicroBrightfield Inc.) The cerebral infarction size and the cerebral infarction volume (%) were calculated by an indirect method.
In Experiment 1 to evaluate the therapeutic efficacy of fidarestat, fidarestat was administered to the mice at 2 mg/kg 15 minutes before reperfusion. In Experiment 2 to evaluate the protective effect of fidarestat, fidarestat was administered to the mice at 10 mg/kg 30 minutes before occlusion. Only solvent was administered to the control group. In each case, forced intragastric administration was carried out.

[3] = Experiment 1 (therapeutic efficacy): 2 mg/kg intragastric 15 minutes before reperfusion
[4] = Experiment 2 (protective effect): 10 mg/kg intragastric 30 minutes before occlusion

## NC(=O)[C@@H]1C[C@]2(NC(=O)NC2=O)c2cc(F)ccc2O1 [Fidarestat, (2S,4S)-6-fluoro-2′,5′-dioxospiro[chroman-4,4′-imidazolidine]-2-carboxamide]
[1]
  Pharmacological effect on the blood coagulation system and the circulatory system: no pharmacological effect
[2]; Experiment 1 (therapeutic efficacy): 2 mg/kg 15 minutes before reperfusion, FIG. 1, brain slice Nos. 3 and 4
  Cerebral infarction size observed after ischemic reperfusion: significantly reduced
[2]; Experiment 1 (therapeutic efficacy): 2 mg/kg 15 minutes before reperfusion, FIG. 4
  Cerebral infarction volume: the same result was also obtained
[2]; [3]
  (Dead) number of mice: (n = 2)
  Distribution of neurological scores: score 0 (number of mice): 0
  Distribution of neurological scores: score 1 (number of mice): 7
  Distribution of neurological scores: score 2 (number of mice): 2
  Distribution of neurological scores: score 3 (number of mice): 0
[2]; Experiment 1 (therapeutic efficacy): 2 mg/kg intragastric 15 minutes before reperfusion, P < 0.02 vs vehicle
  Neurological scores Mean ± SEM: 1.22 ± 0.15
[2]; Experiment 2 (protective effect): 10 mg/kg 30 minutes before occlusion, FIG. 2, brain slice Nos. 3 and 4
  Cerebral infarction size observed after ischemic reperfusion: significantly reduced
[2]; Experiment 2 (protective effect): 10 mg/kg 30 minutes before occlusion, FIG. 5
  Cerebral infarction volume: the same result was also obtained
[2]; [4]
  Distribution of neurological scores: score 0 (number of mice): 0
  Distribution of neurological scores: score 1 (number of mice): 7
  Distribution of neurological scores: score 2 (number of mice): 2
  Distribution of neurological scores: score 3 (number of mice): 0
[2]; Experiment 2 (protective effect): 10 mg/kg intragastric 30 minutes before occlusion, P < 0.05 vs vehicle
  Neurological scores Mean ± SEM: 1.22 ± 0.14
[2]; Experiments 1 and 2 (2 mg/kg 15 minutes before reperfusion; 10 mg/kg 30 minutes before occlusion)
  Effect on the worsening of the neurological symptoms observed after ischemic reperfusion: significant effect
